From article PMC10525924, “Engineering and Purification of Microcin C7 Variants Resistant to Trypsin and Analysis of Their Biological Activity” (Antibiotics, 2023)
Converted amounts (≈) assume the structure as drawn. Where a SMILES comes first, the peptide text is derived from it.

Columns and labels:
Yej^+rimL^− strain [1] = test: organism not typed; type: cell-based; settings: for Diameters of the inhibition zones, Trypsin-Treated Group, Yej^+rimL^− / bacteriostatic activity after trypsin treatment, Yej^+rimL^−: supernatant treated with trypsin 50 μg/mL, 37 °C, 3 h; for Diameters of the inhibition zones, Trypsin-Treated Group, Yej^+rimL^−: pH 6.8, 37 °C 24 h; for Diameters of the inhibition zones, Trypsin-Treated Group, Yej^+rimL^− / bacteriostatic activity after trypsin treatment, Yej^+rimL^− / Diameters of the inhibition zones, Trypsin-Untreated Group, Yej^+rimL^−: agar diffusion; for Diameters of the inhibition zones, Trypsin-Treated Group, Yej^+rimL^− / Diameters of the inhibition zones, Trypsin-Untreated Group, Yej^+rimL^−: dash = no zone; for Diameters of the inhibition zones, Trypsin-Untreated Group, Yej^+rimL^−: 200 μL fermentation supernatant, 1 × 10^5 CFU/mL, 4 °C 1 h then 37 °C 24 h, chloramphenicol 100 μL of 0.25 μg/mL
Text: To analyze the antimicrobial ability of the variants, we measured the inhibition zones of all 21 variants by the agar diffusion method. The peptide moiety of McC was recognized by a YejABEf-peptide transporter. The rimL contains an acetyltransferase domain homologous to MccE which can detoxify and provide resistance to McC [17]. The overexpression of the YejABEF gene cluster and rimL gene knockout made the strain hypersensitive to McC. Therefore, the Yej^+rimL^− strain was selected as the sensitive indicator bacterial strain.
(§1) The pH was adjusted to 6.8.
(§2) The fermentation supernatants and pure products were used to characterize the bacteriostatic effects of McC variants by the agar diffusion and microdilution methods. Yej^+rimL^− and E. coli K88 indicator bacteria were applied. The serotype of E. coli K88 was O149:K91, K88ac, a clinically isolated strain, and provided by the College of Veterinary Medicine, China Agricultural University. The indicated bacteria were diluted to 1 × 10^5 CFU/mL and added to plate medium cooled to 50 °C. Two hundred microliters of supernatants were added to each dish, and diffusion was performed at 4 °C for 1 h. After incubation at 37 °C for 24 h, the diameters of the inhibition zones were determined. One hundred microliters of 0.25 μg/mL chloramphenicol was used as a control. The MICs of the pure McC variants were determined by microdilution in a sterilized 96-well microplate. The McC variants were serially diluted 2 times in 96-well microplates with LB medium. The concentrations of the McC variants ranged from 0.125 to 100 µg/mL. Each well was inoculated with 10 μL of overnight bacterial culture at a concentration of 1.0 × 10^5 CFU/mL and incubated at 37 °C for 24 h. A microplate reader was used to automatically observe changes in absorbance at 600 nm in order to monitor bacterial growth. A positive control group (including inoculated medium) and a negative control group (with medium only) were included. The MIC was determined as the lowest concentration of McC variant that inhibited bacterial growth (preventing an increase in the absorbance reading). All tests were performed in triplicate.

E. coli K88 = test: microbe, parasite or virus in culture; type: cell-based; settings: for Diameters of the inhibition zones, Trypsin-Untreated Group, K88: 200 μL fermentation supernatant, 1 × 10^5 CFU/mL, 4 °C 1 h then 37 °C 24 h, chloramphenicol 100 μL of 0.25 μg/mL
Method: as §1, §2

Yej^+rimL^− strain [2] = type: cell-based; settings: HPLC-purified variants; microdilution in LB, 96-well; 0.125 to 100 µg/mL; 1.0 × 10^5 CFU/mL; 37 °C 24 h; absorbance 600 nm; triplicate
Method: To accurately characterize the bacteriostatic abilities of the variants, the MICs of the pure McC variants toward the McCsensitive strain Yej^+rimL^− were determined. The MICs of all variants were lower than that of wild-type McC. From smallest to largest MIC, the above five variants were in the following order: R2A, R2T, R2Q, R2S, and R2H. […] Although the diameter of the inhibitory zone of R2M was smaller than those of the above five variants, the bacteriostatic ability of R2M was second only to R2T/R2Q, and the MIC was 50 μg/mL.
as §2

[3] = Remaining amount by RP-HPLC after pepsin treatment; type: in vitro ADME; settings: isolated enzyme pepsin; pepsin treated for 3 h; read-out RP-HPLC; Table S2
Method: (§3) To test whether the variants were tolerant to trypsin or other digestive enzymes, the amount of the remaining McC and its analogues remaining was determined by RP-HPLC after trypsin, pepsin, and chymotrypsin treated for 3 h (Table S2), and the inhibition zones of trypsin-treated variants were tested using the same method (Table 2).

[4] = Remaining amount by RP-HPLC after chymotrypsin treatment; type: in vitro ADME; settings: isolated enzyme chymotrypsin; chymotrypsin treated for 3 h; read-out RP-HPLC; Table S2
Method: as §3

[5] = HPLC retention time according to hydrophobicity; type: physicochemical; settings: chromatographic, C18 5 μm 9.4 × 250 mm; A 0.1% trichloroacetic acid, B 0.1% trichloroacetic acid with 90% acetonitrile; linear 5% B to 50% B; 1 mL/min; 35 °C; 280 nm; varies according to hydrophobicity
Method: To find the separation peaks of the variants, wildtype McC and blank control fermentation broth samples were tested by HPLC. The separation peaks with obvious differences (those with retention times of 11 min and 17 min) were purified and the antimicrobial activity was determined. […] Therefore, the molecular weight was further analyzed by mass spectrometry, and the separation peak at approximately 17 min was confirmed to be that of the desired purified McC. Since the mutations in this study involved only one amino acid and had few effects on the properties of the peptides, we predicted that the separation peaks of the variants should fluctuate around approximately 17 min according to their hydrophobicity. […] The purity of the purified variants was determined by HPLC to be greater than 80% (Table 3).
The lyophilized supernatants were dissolved in deionized water, filtered through 0.22 μm aqueous-phase filter membranes, and purified by high-performance liquid chromatography (HPLC, Agilent Technologies Inc., Palo Alto, CA, USA) with C18 column (5 μm 9.4 × 250 mm, Agilent Technologies Inc., Palo Alto, CA, USA). The mobile phase was composed of 0.1% (v/v) trichloroacetic acid (solvent A) and 0.1% (v/v) trichloroacetic acid with 90% (v/v) acetonitrile (solvent B). A linear gradient from 95% A/5% B to 50% A/50% B was used with a flow rate of 1 mL/min, a sample volume of 10 μL, a column temperature of 35 °C, and a detection wavelength of 280 nm. Electrospray ionization mass spectrometry (ESI-MS) was used to compare the McC variant masses with the expected masses. The relationships between the relative abundances and the mass-to-charge ratios (m/z) of the ions were determined to confirm the identities of the experimentally produced McC variants.

SMILES | zone of inhibition at 0.25 µg/mL (Yej^+rimL^− strain [1]; read-out: Diameters of the inhibition zones, Trypsin-Untreated Group, Yej^+rimL^−) | Diameters of the inhibition zones, Trypsin-Treated Group, Yej^+rimL^− (Yej^+rimL^− strain [1]) | zone of inhibition at 0.25 µg/mL (E. coli K88; Escherichia coli, K88, read-out: Diameters of the inhibition zones, Trypsin-Untreated Group, K88) | Diameters of the inhibition zones, Trypsin-Treated Group, K88 (E. coli K88; supernatant treated with trypsin 50 μg/mL, 37 °C, 3 h, pH 6.8, agar diffusion, 37 °C 24 h, dash = no zone) | bacteriostatic activity after trypsin treatment, Yej^+rimL^− (Yej^+rimL^− strain [1]) | Diameters of the inhibition zones, Trypsin-Untreated Group, Yej^+rimL^− (Yej^+rimL^− strain [1]) | MIC (Yej^+rimL^− strain [2]) | remaining at 3 h [3] | remaining at 3 h [4] | Retention Time [5] | Diameters of the inhibition zones, Trypsin-Untreated Group, K88 (E. coli K88; agar diffusion, dash = no zone)
O=C(N[C@H](CO)[C@H](O)c1ccc([N+](=O)[O-])cc1)C(Cl)Cl [Chloramphenicol, reference compound] | 23.4 mm | 20.96 mm | 23.6 mm | 22.79 mm | – | – | – | – | – | – | –
CSCC[C@H](NC=O)C(=O)N[C@@H](CC(=O)O)C(=O)N[C@H](C(=O)NCC(=O)N[C@@H](CC(N)=O)C(=O)N[C@@H](C)C(=O)N[C@@H](CC(=O)O)C(=O)NP(=O)(OCCCN)OC[C@H]1O[C@@H](n2cnc3c(N)ncnc32)[C@H](O)[C@@H]1O)[C@@H](C)O (stereo partly drawn) [R2D] (HELM PEPTIDE1{[O=C[*:2]].M.D.T.G.N.A.[NCCCOP(=O)(NC(=O)[C@H](CC(=O)O)N[*:1])OC[C@H]1O[C@@H](n2cnc3c(N)ncnc32)[C@H](O)[C@@H]1O]}$$$$V2.0) | – | 14.11 mm | – | – | exhibited antibacterial effects | 17.71 mm | >100 µg/mL | 83.9 ± 1.42% | 42.4 ± 1.07% | 17.625 min | –
CSCC[C@H](NC=O)C(=O)N[C@@H](Cc1ccccc1)C(=O)N[C@H](C(=O)NCC(=O)N[C@@H](CC(N)=O)C(=O)N[C@@H](C)C(=O)N[C@@H](CC(=O)O)C(=O)NP(=O)(OCCCN)OC[C@H]1O[C@@H](n2cnc3c(N)ncnc32)[C@H](O)[C@@H]1O)[C@@H](C)O (stereo partly drawn) [R2F] (HELM PEPTIDE1{[O=C[*:2]].M.F.T.G.N.A.[NCCCOP(=O)(NC(=O)[C@H](CC(=O)O)N[*:1])OC[C@H]1O[C@@H](n2cnc3c(N)ncnc32)[C@H](O)[C@@H]1O]}$$$$V2.0) | – | 10.95 mm | – | – | – | 13.05 mm | – | 82.3 ± 0.94% | 41.1 ± 0.98% | – | 14.34 mm
CSCC[C@H](NC=O)C(=O)NCC(=O)N[C@H](C(=O)NCC(=O)N[C@@H](CC(N)=O)C(=O)N[C@@H](C)C(=O)N[C@@H](CC(=O)O)C(=O)NP(=O)(OCCCN)OC[C@H]1O[C@@H](n2cnc3c(N)ncnc32)[C@H](O)[C@@H]1O)[C@@H](C)O (stereo partly drawn) [R2G] (HELM PEPTIDE1{[O=C[*:2]].M.G.T.G.N.A.[NCCCOP(=O)(NC(=O)[C@H](CC(=O)O)N[*:1])OC[C@H]1O[C@@H](n2cnc3c(N)ncnc32)[C@H](O)[C@@H]1O]}$$$$V2.0) | – | 14.15 mm | – | – | exhibited antibacterial effects | 18.86 mm | >100 µg/mL | 85.89 ± 0.79% | 45.6 ± 1.31% | 17.253 min | –
CSCC[C@H](NC=O)C(=O)N[C@@H](CCCCN)C(=O)N[C@H](C(=O)NCC(=O)N[C@@H](CC(N)=O)C(=O)N[C@@H](C)C(=O)N[C@@H](CC(=O)O)C(=O)NP(=O)(OCCCN)OC[C@H]1O[C@@H](n2cnc3c(N)ncnc32)[C@H](O)[C@@H]1O)[C@@H](C)O (stereo partly drawn) [R2K] (HELM PEPTIDE1{[O=C[*:2]].M.K.T.G.N.A.[NCCCOP(=O)(NC(=O)[C@H](CC(=O)O)N[*:1])OC[C@H]1O[C@@H](n2cnc3c(N)ncnc32)[C@H](O)[C@@H]1O]}$$$$V2.0) | – | 0 mm | – | – | – | 20.91 mm | – | 87.69 ± 0.68% | 41.4 ± 0.73% | – | 16.95 mm
CSCC[C@H](NC=O)C(=O)N[C@@H](CC(C)C)C(=O)N[C@H](C(=O)NCC(=O)N[C@@H](CC(N)=O)C(=O)N[C@@H](C)C(=O)N[C@@H](CC(=O)O)C(=O)NP(=O)(OCCCN)OC[C@H]1O[C@@H](n2cnc3c(N)ncnc32)[C@H](O)[C@@H]1O)[C@@H](C)O (stereo partly drawn) [R2L] (HELM PEPTIDE1{[O=C[*:2]].M.L.T.G.N.A.[NCCCOP(=O)(NC(=O)[C@H](CC(=O)O)N[*:1])OC[C@H]1O[C@@H](n2cnc3c(N)ncnc32)[C@H](O)[C@@H]1O]}$$$$V2.0) | – | 0 mm | – | – | – | 14.40 mm | >100 µg/mL | 79.25 ± 0.62% | 39.2 ± 0.75% | 19.425 min | –
CSCC[C@H](NC=O)C(=O)N[C@H](C(=O)N[C@H](C(=O)NCC(=O)N[C@@H](CC(N)=O)C(=O)N[C@@H](C)C(=O)N[C@@H](CC(=O)O)C(=O)NP(=O)(OCCCN)OC[C@H]1O[C@@H](n2cnc3c(N)ncnc32)[C@H](O)[C@@H]1O)[C@@H](C)O)C(C)C (stereo partly drawn) [R2V] (HELM PEPTIDE1{[O=C[*:2]].M.V.T.G.N.A.[NCCCOP(=O)(NC(=O)[C@H](CC(=O)O)N[*:1])OC[C@H]1O[C@@H](n2cnc3c(N)ncnc32)[C@H](O)[C@@H]1O]}$$$$V2.0) | – | 14.62 mm | – | – | exhibited antibacterial effects | 21.34 mm | 50 µg/mL (≈ 44.6 µM) | 79 ± 1.24% | 39.1 ± 1.05% | 18.151 min | –
CSCC[C@H](NC=O)C(=O)N[C@@H](Cc1ccc(O)cc1)C(=O)N[C@H](C(=O)NCC(=O)N[C@@H](CC(N)=O)C(=O)N[C@@H](C)C(=O)N[C@@H](CC(=O)O)C(=O)NP(=O)(OCCCN)OC[C@H]1O[C@@H](n2cnc3c(N)ncnc32)[C@H](O)[C@@H]1O)[C@@H](C)O (stereo partly drawn) [R2Y] (HELM PEPTIDE1{[O=C[*:2]].M.Y.T.G.N.A.[NCCCOP(=O)(NC(=O)[C@H](CC(=O)O)N[*:1])OC[C@H]1O[C@@H](n2cnc3c(N)ncnc32)[C@H](O)[C@@H]1O]}$$$$V2.0) | – | 14.93 mm | – | – | exhibited antibacterial effects | 18.87 mm | >100 µg/mL | 85.22 ± 0.72% | 45.4 ± 1.18% | 18.591 min | –
